According to US9974767B2, “Statins in the treatment of muscular dystrophies and myopathies” (University of Washington, priority 2014, dated 2018):
Entries after “also recorded” stand apart in the source; their conditions may differ.

Columns and labels:
atrogin-1 = assay: Atrogin-1 mRNA in quadriceps muscles, qPCR; assay type: in vivo, mouse; conditions: old mdx Sim mice
Text: Another pathway that has been implicated in statin myopathy is muscle atrophy mediated by atrogin-1, a ubiquitin-protein ligase that stimulates protein breakdown. Atrogin-1 is induced by statin treatment in animal models and humans with statininduced myopathy. However, in DMD, atrogin-1 levels are consistently lower than in normal muscle and are not increased at any stage of the disease.
Total RNA was isolated from quadriceps of WT, mdx, and simvastatintreated mdx mice using Trizol (Life Technologies) and further purified using an RNAeasy Kit (Qiagen). Real-time quantitative RT-PCR (qPCR) was performed using TaqMan chemistry and the ABI 7000 sequence detection system with 50 ng of RNA, ABI Fast Virus 1-Step Master Mix reagents, and primer sets specific for atrogin-1 and HPRT (Applied Biosystems). Data were obtained from 5 mice in each treatment group and normalized to the internal HPRT control.

[1] = test system: immortalized mdx myoblast cell line; assay: Differentiation of immortalized mdx myoblasts into myotubes; assay type: cell-based, mouse
Description: However, the statin concentrations required to induce these deleterious effects in vitro are typically 1 μM or greater. These concentrations are considerably (100-1000 times) higher than those found in vivo in mice and humans. […] We then carried out an in vitro experiment using an immortalized mdx myoblast cell line.
Immortomouse mdx myoblasts were grown on gelatin coated plates and until 70% confluence in DMEM supplemented with 10% HS, 20% FBS, 0.5% chicken embryo extract and 20 units/ml of γ-interferon. […] Myotubes were washed in PBS, fixed in ice-cold methanol for 10 min, and H&E stained. Images of myotubes were taken with a Nikon inverted microscope (W.M. Keck Center, University of Washington).

WT mice = assay: H&E histology of TA muscle, wild type mice; assay type: in vivo, mouse; conditions: 8 months, 5-10 mg/kg/day
Description: The dose used (5-10 mg/kg/day) is equivalent to a low to moderate dose in humans.
DMD is a chronic, progressively degenerative disease and consequently potential treatments need to be effective over many years. […] The calculated dose given to the mice was between 5-10 mg/kg/day. This would equate to 20-40 mg/day for a 10 yea old DMD boy weighing 30 kg, based on mouse to human equivalence calculations, which is within the recommended dose range of statins for children.
Muscles were imbedded in O.C.T compound and frozen in isopentane cooled in liquid nitrogen. Cryosections (10 μm thick) were placed on a glass side. Sections were fixed with either ice-cold methanol or 2% paraformaldehyde for 5 to 10 min. Some sections were stained with Haemotoxylin and Eosin (H & E) using standard procedures. For immunofluorescence, sections were incubated in blocking buffer (0.8% BSA and 1% fish gelatin in PBS) for 45 min. […] For fluorescence quantification (CD68, fibronectin and myosin heavy chains), images were converted to grayscale in Image J and a threshold applied to calculate the area of fluorescence as a percent of the total area of the section. Fibers with central nuclei were expressed as a percent of total fibers with detectable nuclei (ie. both central and peripheral).

mdx mice [2] = assay: Voluntary running wheel activity over 2 days; assay type: in vivo, mouse; conditions: P=0.13
mdx mice [3] = assay: Plasma creatine kinase (CK) activity as measure of whole-body muscle damage; assay type: in vivo, mouse
LC3A/LC3B = assay: LC3A and LC3B expression in diaphragm (autophagy), Western blot; assay type: in vivo, mouse; conditions: old mdx Sim vs mdx Con
Text: Autophagy is an important cellular pathway for degrading damaged proteins, organelles and protein aggregates, which are then recycled by the cell for energy use. Impaired autophagy can trigger cell death and in skeletal muscle, proper regulation of autophagy is essential for normal cellular and physiological function. Both mdx and DMD muscles show evidence of reduced autophagy and treatment of mdx mice with a low protein diet triggered autophagy, which reduced inflammation and fibrosis and enhanced muscle function. […] A key protein marker of autophagic flux is the microtubule-associated protein 1A/1B light chain 3, which has a cytosolic form (LC3A) and a lapidated form (LC3B). An increased level of LC3B relative to LC3A is indicative of enhanced autophagic flux.
Tibialis anterior (TA) muscle function was measured in situ. Mice were anaesthetized with an intraperitoneal injection of Avertin (625 mg/kg) and placed on a heated metal platform (37° C.). The distal TA tendon was dissected free and sutured to the lever arm of the force and length control system (305C-LR, Aurora Scientific). […] Fatigue recovery was measured every 2 min up to 10 min post-fatigue. […] Membranes were incubated with enhanced chemiluminescence (ECL) reagent (Amersham) and bands were detected by the FluorChem M, imaging system (Protein Simple).

**Q.** What does the source list for `CCC(C)(C)C(=O)O[C@H]1C[C@@H](C)C=C2C=C[C@H](C)[C@H](CC[C@@H]3C[C@@H](O)CC(=O)O3)[C@H]21` [Simvastatin, simvastatin]?
**A.** atrogin-1 mRNA levels (atrogin-1): not significantly different from mdx Con; muscle differentiation, myotube formation ([1]; 50 to 500 nM, 3 days): appeared similar to untreated cells; doses at which simvastatin became more toxic, number of viable cells decreased ([1]; 3 days of treatment): ≥ 1 µM; muscle histology of WT mice (damage, inflammation) (WT mice): no effect; also recorded: no evidence of muscle damage or inflammation; muscle histology of WT mice (damage, inflammation) (WT mice; listed as simvastatin): no effect; voluntary running wheel activity, more than control mdx mice (mdx mice [2]): 20%; reduction in plasma creatine kinase (CK) activity level (mdx mice [3]; mdx Sim vs mdx Con, oral 5-10 mg/kg/day for 8 months from 3 weeks of age): 85%; reduction of CK levels compared to untreated mdx mice (mdx mice [3]; mdx mice, 8 months, drinking water 10 mg/kg/day): ~8 fold; increase of LC3B (LC3A/LC3B): 40%
